# US5994363A (priority 1998, dated 1999)
# Counter-ions that a name gives are not always drawn.
# Experiments:
# [1] = mouse, cited from earlier work
# [2] = Adverse events in escalating dose tolerance study in psychogenic male erectile dysfunction (Example 5); assay type: in vivo, human
# Experimental: Example 5-Summary. This clinical study was conducted in three phases. In Phase 1 subjects were selected from among patients complaining of impotence by a thorough physiological and psychological assessment. For example, one step in the assessment process required candidates to undergo Rigiscan measurement of penile rigidity and circumference following administration of a placebo tablet in single blind fashion. Phase 2 consisted of a dose escalation (4, 6, and 8 mg tablets) administered on 4 visits. An out-patient phase was conducted as Phase 3. Patients were given apomorphine HCL tablets to use at home.
# Example-5 Detailed Description (Clinical Study #94-03-01). The human study was conducted in three separate phases. Phase 1 consisted of selecting appropriate subjects and obtaining baseline information on sexual performance for each subject.
# They were tested on four separate days at four separate doses (placebo and three active medication doses) with an interval of no less than six days between visits (i.e., one visit per week).
# If the trial was aborted, the patient was given the choice of having Gravol 50 mg p.o. (an anti-emetic) administered at that time or enduring the adverse events as they arose. In either event, the patient was monitored by the research clinician until all side-effects had subsided. The patient was asked to return the following week for the next scheduled dose.
# During the five-week, home-use phase, subjects were to attempt coitus at least once each week after taking a single APO tablet. After each attempt, the subject and their partner completed a Sexual Function questionnaire (See FIGS. 15 and 16) which was later evaluated and used for final statistical analysis.
# The data was analyzed by an inspection of the reported adverse events, the given dose of apomorphine and the phase of the study, i.e., in-patient (dose escalating) or take-home (constant dose) phases.
smiles,measurement,setting,value
CN1CCc2cccc3c2[C@H]1Cc1ccc(O)c(O)c1-3 [apomorphine HCl],lethality at or above about 13 mg/kg,[1]; single bolus subcutaneous,reported lethal
same,LD50,[1],> 50 mg/kg
same,Total Number of Adverse Events,"[2]; Phase 2 (dose escalation), 4 mg/week",31
same,Total Number of Adverse Events,"[2]; Phase 2 (dose escalation), 6 mg/week",58
same,Total Number of Adverse Events,"[2]; Phase 2 (dose escalation), 8 mg/week",50
same,Total Number of Adverse Events,"[2]; Phase 3 (out-patient), 4 mg",15
same,Total Number of Adverse Events,"[2]; Phase 3 (out-patient), 6 mg",13
same,Total Number of Adverse Events,"[2]; Phase 3 (out-patient), 8 mg",8
same,overall incidence of nausea,[2]; all administered doses,less than 13%
same,severe nausea cases,[2]; all doses,two
same,hypotension,"[2]; also bradycardia, dizziness, syncope, pallor reported",reported as an adverse event in some subjects
same,"Anti-Emetic In Patient, Total",[2]; in vivo,8
same,"Anti-Emetic Take Home, Total",[2]; in vivo,2
same,"In-Patient A.E.'s, Total",[2]; in vivo,109
same,"Take-Home A.E.'s, Total",[2]; in vivo,25
same,decrease in adverse events per tablet,[2]; in vivo,~95.6%
same,frequency of side effects,[2]; in vivo,94.2%
same,incidence of vomiting,[2]; in vivo,less than 3%
same,increased sweating and fatigue,[2]; in vivo,also reported
same,severe hypotension and pallor,[2]; in vivo,Only single cases
same,severe increased sweating,[2]; in vivo,One of the cases
